The subject of one data set is R10-Negative cells. Nature of the data set: CFSE cell division and viability. The format is cell-based. The note with it: 144 h. Here is the method: Using the vital stain, CFSE, it is possible to determine the concentrations of different inhibitors required to arrest cell division and also to quantitate the number of quiescent cells. […] However with exposure to ST1571 at the same concentration many cells continue dividing and 80% are still viable after 6 days; even at 100 nM ST1571, some cells are able to continue dividing and the viability is still 24% at 6 days.

Data set [1] addresses T1, Ba/F3 cells transformed with Bcr-Abl wild-type (Homo sapiens, UniProt P00519).
T1 construct: other: von Bubnoff et al. 2002; other: 48 hours of culture; fused on or other part: P11274 (Breakpoint cluster region protein)
Nature of the data set: MTS proliferation, Ba/F3 Bcr-Abl wild-type. The note with it: for GI50: read-out: IC50, growth inhibition. The format is cell-based. As for the experimental part: (§1) Presence of single point mutations was verified by sequencing. […] Parental cells were cultured in presence of 2 ng/mL interleukin-3 (IL-3, R&D, Wiesbaden, Germany). IL-3 independent Ba/F3 cells expressing wild-type and mutant BCR-ABL were generated by electroporation and transformed upon withdrawal of IL-3. Expression of Bcr-Abl was confirmed by western blot and flow-cytometric analysis.
(§2) Proliferation was measured using a MTS tetrazolium-based method by absorption of formazam at 490 nm (CellTiter 96, Promega, Madison, Wis., USA). Measures were taken as triplicates after 24 and 48 hours of culture without and in the presence of inhibitor at the indicated concentrations.

For data set [2], the system named is Ba/F3 cells expressing P loop mutant E255K. Nature of the data set: MTS proliferation, Ba/F3 Bcr-Abl E255K. The format is cell-based. As for the experimental part:
as §1, §2

Data set [3] concerns Ba/F3 cells expressing P loop mutant Y253H. Nature of the data set: MTS proliferation, Ba/F3 Bcr-Abl Y253H. In kind it is cell-based. Here is the method:
as §1, §2

The subject of data set [4] is Ba/F3 cells expressing P loop mutant E255V. Nature of the data set: MTS proliferation, Ba/F3 Bcr-Abl E255V. The format is cell-based. Here is the method:
as §1, §2

Data set [5] can be described thus: Pharmacokinetics in B6D2F1 mice. The format is in vivo. The conditions noted are these: for Cmax / MRT / bioavailability: B6D2F1, mouse, plasma, 1 mg; for Cmax / MRT / AUG (uM × Min) IV / AUG (uM × Min) PO: one milligram; for bioavailability: po vs iv. Here is the method: Solvents. […] SKI-DV281 was dissolved/suspended in a solution of 20% Cremophor +20% ethanol in saline.
Animal Experiments. For each compound, nineteen B6D2F1 mice were used. One mouse was used as control and the rest was divided into two groups with 9 mice per group. One milligram ([…] at 17 mg/ml) of compound was administered to the mice through oral gavage in one group and intravenously in the other group. At each time point (total of 9 time points) after the drug administration, one mouse from each group was sacrificed and approximately 400 μl of blood was collected into heparinized tubes through cardiac puncture. The plasma samples were analyzed as described below.
Analytical. The analysis of drug level in plasma is performed with an automated LC-MS system, which consists of a Prospekt-2 automated sample processor, interfaced with an Agilent 1100 LC-MS. The Prospekt-2 consists of two parts, high pressure eluter (HPE) and automated cartridge exchanger (ACE). The Agilent unit consists of a binary pump, an autosampler, the instrument will perform extraction and analysis automatically. The ACE picks up a new C, 18 solid phase […] (SPE) cartridge and places it into the clamp. The HPE activates the cartridge by passing acetonitrile and water through the cartridge. The autosampler picks up a predetermined amount of the plasma and the HPE flushes the plasma onto the SPE cartridge, washes it with water, then the sample is analyzed. When the cycle is completed, the ACE will fetch a new cartridge and cycle is repeated.
Data analysis and result. The pharmacokinetic curve for each compound was plotted intravenous versus oral (iv vs. po) (see FIGS. 27-29). Data analysis was performed with WinNonlin v.4 (Pharsight) using non-compartmental model.

Data set [6] in a line: Serial plasma levels in mice (bioavailability). In kind it is in vivo. The conditions noted are these: mouse, oral, read-out: bioavailability after oral administration relative to intravenous or intraperitoneal injection. The text has this: Toxicological and pharmacological studies in mice and dogs include determining the maximum tolerated doses, measuring plasma and tissue levels and bioavailability after oral and parenteral administration, and developing optimal formulations for both oral and parenteral use. […] One way to administer the drug is by continuous infusion, and we are currently exploring the use of small osmotic pumps that can be inserted into the peritoneal cavities of mice that will deliver a constant concentration continuously. All animal studies are performed under the standard guidelines. Initial dose escalation studies are performed via oral delivery on control mice in order to determine the maximum tolerated dose (MTD). Studies proceed at or below half-MTD. The inherent kinetics for disease engraftment of each model system and the appropriate windows for duration of drug administration are then determined. In the human mesothelioma xenograft model, tumor formation is evaluated, allowing for the establishment of 1-2 mm^3 tumors before drug administration. Survival data are presented using the Kaplan-Meyer method. We will compare the administration of the inhibitors by i.v. or i.p. bolus injection with continuous i.p. infusion using an osmotic pump.

Setting [7] is: intravenous, read-out: Cmax (uM) IV.
Setting [8] is: intravenous, read-out: MRT (Min) IV (converted).
Where [9] appears, read: oral gavage, read-out: Cmax (uM) PO.
Setting [10] is: oral gavage, read-out: MRT (Min) PO (converted).

Each structure is given as a SMILES string. Like-named read-outs stand apart in the source and are kept apart here.

Broadly, the viability is the share of living cells, or the viability signal relative to a control. A high value points to better survival. What is called Cmax is the maximum level reached in the sampled fluid or tissue. What is called MRT is the average time that molecules of a dose stay in the body.

T1 sequence (P00519 whole entry, change not shown, the tested form may be a part): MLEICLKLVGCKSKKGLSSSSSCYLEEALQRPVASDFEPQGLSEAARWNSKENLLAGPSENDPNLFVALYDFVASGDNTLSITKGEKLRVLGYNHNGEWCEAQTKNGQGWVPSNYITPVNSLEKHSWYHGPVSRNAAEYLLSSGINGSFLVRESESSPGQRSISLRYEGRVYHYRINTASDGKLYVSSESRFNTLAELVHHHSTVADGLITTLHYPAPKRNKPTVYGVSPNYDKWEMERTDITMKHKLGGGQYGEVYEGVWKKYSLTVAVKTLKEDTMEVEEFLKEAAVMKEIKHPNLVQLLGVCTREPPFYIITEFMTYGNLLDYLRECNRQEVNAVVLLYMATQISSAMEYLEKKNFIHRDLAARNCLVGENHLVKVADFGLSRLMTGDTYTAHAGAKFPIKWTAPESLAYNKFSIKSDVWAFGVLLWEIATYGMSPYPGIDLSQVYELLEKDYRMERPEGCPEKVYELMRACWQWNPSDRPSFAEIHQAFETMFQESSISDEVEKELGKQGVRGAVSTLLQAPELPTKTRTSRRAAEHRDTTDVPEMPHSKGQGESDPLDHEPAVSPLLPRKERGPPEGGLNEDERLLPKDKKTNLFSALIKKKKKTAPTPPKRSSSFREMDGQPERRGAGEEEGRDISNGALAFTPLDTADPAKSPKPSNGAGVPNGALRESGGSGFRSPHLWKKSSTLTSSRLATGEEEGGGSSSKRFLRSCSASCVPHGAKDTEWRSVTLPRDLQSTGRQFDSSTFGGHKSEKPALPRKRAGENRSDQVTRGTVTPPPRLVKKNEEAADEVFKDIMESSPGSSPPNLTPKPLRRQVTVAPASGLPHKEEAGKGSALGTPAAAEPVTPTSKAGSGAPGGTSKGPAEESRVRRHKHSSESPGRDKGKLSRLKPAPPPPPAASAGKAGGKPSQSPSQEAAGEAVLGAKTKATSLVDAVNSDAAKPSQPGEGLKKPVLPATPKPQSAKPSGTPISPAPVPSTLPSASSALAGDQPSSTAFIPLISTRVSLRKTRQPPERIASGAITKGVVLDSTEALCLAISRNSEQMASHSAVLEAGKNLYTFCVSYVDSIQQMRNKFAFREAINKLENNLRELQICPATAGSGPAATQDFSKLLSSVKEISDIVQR

Turning to `Cc1ccc(NC(=O)c2ccc(CN3CCN(C)CC3)cc2)cc1Nc1nccc(-c2cccnc2)n1` [STI-571], in the data set with R10-Negative cells (25 nM, after 6 days), the viability at […] worked out at 80%. The viability at 0.1 µM in the data set with R10-Negative cells (100 nM, at 6 days) came out at 24%.

Take `Cn1c(=O)c(-c2c(Cl)cccc2Cl)cc2cnc(Nc3cccc(N)c3)nc21` [SKI DV 2-43, 2-(3-Aminophenylamino)-6-(2,6-dichlorophenyl)-8-methyl-8H-pyrido[2,3-d]pyrimidin-7-one]: the “IC95, growth inhibition” value in data set [1] came to 40 nM. For the same compound, the GI50 in data set [1] (ba/f3 cells transformed with bcr-abl wild-type) was found to be 9 nM. The figures for the “cellular IC95” value in data set [2], in data set [3] and in data set [4] were 110 nM, 125 nM and 200 nM, respectively. Also, the values for the Cmax in data set [5] (setting [7]) and in data set [5] (setting [9]) were 224 µM and 10 µM, respectively. Besides, the MRT in data set [5] (setting [8]) is 174 min; in data set [5] (setting [10]), 294 min. This compound also displayed a bioavailability in data set [5] of 4%. Also, the “AUG (uM × Min) IV” value in data set [5] (intravenous) turned out to be 20319 µM·min. In addition, the “AUG (uM × Min) PO” value in data set [5] (oral gavage) was 826 µM·min.

`Cn1c(=O)c(-c2c(Cl)cccc2Cl)cc2cnc(Nc3ccc(NC(=O)CCCCCNC(=O)CCCC[C@@H]4SC[C@@H]5NC(=O)N[C@@H]54)cc3)nc21` [SKI DV 1-10 biotinyl, 2-{4-[6-(Biotinamido)hexanamido]phenylamino}-6-(2,6-dichlorophenyl)-8-methyl-8H-pyrido[2,3-d]pyrimidin-7-one]: in data set [1] (48 hours of culture), the “IC95, growth inhibition” value is reported as 515 nM and the GI50 was 115 nM.

With `Cn1c(=O)c(-c2c(Cl)cccc2Cl)cc2cnc(Nc3cccc(CO)c3)nc21` [PD166326, 6-(2,6-Dichlorophenyl)-2-(3-hydroxymethylphenylamino)-8-methyl-8H-pyrido[2,3-d]pyrimidin-7-one], the Cmax stood at 90 µM in data set [5] (setting [7]) and 3.2 µM in data set [5] (setting [9]). Also, the MRT in data set [5] (setting [8]) is 103 min; in data set [5] (setting [10]), 126 min. In addition, the results for the bioavailability in data set [5] and in data set [6] were 6.6% and around 8%, respectively. In data set [5] (intravenous), the “AUG (uM × Min) IV” value is 2395 µM·min. The “AUG (uM × Min) PO” value in data set [5] (oral gavage) was 158 µM·min.

The values above are taken from patent US20050009849A1, “Pyridopyrimidine kinase inhibitors” (priority 2003, published 2005).
